Tests used:
[1] = tested on: SHR/NDmcr-cp rat model of diabetic nephropathy; assay: Suppressive effect on tubulointerstitial fibrosis in a rat model of diabetic nephropathy (sirius red staining); format: in vivo; details: male SHR/NDmcr-cp rats, Compound A 0.01% diet from 12 to 40 weeks of age (28 weeks), kidney sections; FIG. 1
Experimental: Experiment 1. […] Male […] (Japan SLC, Inc.) was used as an experiment animal, and male WKY/Izm rat was used as a normal control (WKY group). The above-mentioned two types of rats were purchased at 6 weeks of age. After confirming that […] have hyperglycemia, hypertension, and hyperlipidemia; Compound A (0.01% diet) and vehicle (powdered diet) were administered to Compound A Group and Vehicle Group respectively from 12 weeks of age to 40 weeks of age. At 40 weeks of age, the rats were exsanguinated under isoflurane anesthesia, kidney was collected and fixed in 10% neutral buffered formalin, and then paraffin-embedded section was prepared. After deparaffinization, the section was stained with an iron hematoxylin solution for 8 minutes and then with a sirius red solution for 1 hour. The iron hematoxylin solution was prepared at the time of use by mixing equal volume of Solution 1 (dissolving 1 g hematoxylin in 100 mL ethanol) and Solution 2 (dissolving 2 g ferric chloride (FeCl3·6H2O) and 1 mL of 25% hydrochloric acid in 95 mL distilled water). […] An image of the sirius red-stained section was captured with HS All-in-One Fluorescence Microscope (BZ-9000, KEYENCE CORPORATION), and the ratio (%) of sirius red-stained area relative to the whole kidney area was measured by a built-in image analysis function.

[2] = tested on: SD rat model of renal ischemia-reperfusion injury; assay: Suppressive effect on tubulointerstitial fibrosis in a rat model of renal ischemia-reperfusion injury (sirius red staining); format: in vivo; details: male SD rats, oral once daily for 6 days starting 3 days before ischemia-reperfusion injury, 0.2 or 2 mg/mL at 5 mL/kg; kidney 4 weeks after injury; FIG. 3
Experimental: Experiment 2. […] Male SD rat at 6 weeks of age (CHARLES RIVER LABORATORIES JAPAN, INC.) was used as an experiment animal. 0.5% (w/v) Methylcellulose (MC) was orally administered to Vehicle Group and Sham Group, and 0.2 mg/mL or 2 mg/mL Compound A suspended in 0.5% (w/v) methylcellulose (MC) was orally administered to Compound A Group at a dose of 5 mL/kg once daily for 6 days from 3 days before the ischemia-reperfusion injury. On one day before the ischemia-reperfusion injury, the right kidney was removed under isoflurane anesthesia. The ischemia-reperfusion injury was induced by clamping the left renal vein and artery for 45 minutes and then following reperfusion under isoflurane anesthesia, whereas such a surgery treatment was not performed for the Sham Group. 4 Weeks after the ischemia-reperfusion injury, the rats were exsanguinated under isoflurane anesthesia, kidney was collected and fixed in 10% neutral buffered formalin, and then paraffin-embedded section was prepared. Staining and image analysis were performed by a similar method as described above.

prolyl hydroxylase (PHD) = details: as described in Patent Document 1 (WO 2011/007856); cited from earlier work
[3] = tested on: hypoxia-inducible factor (HIF); details: as described in Patent Document 1 (WO 2011/007856); cited from earlier work

Compound: O=C(O)CNC(=O)c1c(O)cc(CCc2ccccc2)n2ncnc12 [Compound A, 2-({[7-hydroxy-5-(2-phenylethyl)-[1,2,4]triazolo[1,5-a]pyridin-8-yl]carbonyl}amino)acetic acid]
- tubulointerstitial fibrosis, sirius red-stained area ratio [1]: suppressive effect on tubulointerstitial fibrosis
- tubulointerstitial fibrosis, sirius red-stained area ratio [2]: suppressive effect on tubulointerstitial fibrosis
- prolyl hydroxylase (PHD) inhibitory action (prolyl hydroxylase (PHD)): has a prolyl hydroxylase (PHD) inhibitory action
- stabilization of hypoxia-inducible factor (HIF) [3]: stabilizes the hypoxia-inducible factor (HIF)

Source: patent US20240342141A1, “Method for Treating or Preventing Diabetic Nephropathy” (Japan Tobacco Inc., priority 2015, published 2024)
